Test results reported in the NIST ThermoML archive (doi:10.1021/je400332j).

Test: xn = mol fraction of the nth substance listed
Details: 101 kPa, Liquid; for viscosity: Concentric cylinders viscometry; for mass density: Vibrating tube method

CCCn1cc[n+](C)c1.F[B-](F)(F)F [1-propyl-3-methylimidazolium tetrafluoroborate] + CCn1cc[n+](C)c1.F[B-](F)(F)F
Details	mass density [kg/m3]	viscosity [mPa·s]
293.15 K, x2 = 0	1239.3	95.44
293.15 K, x2 = 0.1003	1243.5	88.85
293.15 K, x2 = 0.2001	1247.8	82.33
293.15 K, x2 = 0.2997	1251.7	76.28
293.15 K, x2 = 0.3999	1256.1	70.61
293.15 K, x2 = 0.4996	1260.6	65.46
293.15 K, x2 = 0.5991	1265	60.73
293.15 K, x2 = 0.6997	1269.7	56.34
293.15 K, x2 = 0.7999	1274.4	52.31
293.15 K, x2 = 0.8998	1279.2	48.61
298.15 K, x2 = 0	1235.7	74.04
298.15 K, x2 = 0.1003	1239.8	69.32
298.15 K, x2 = 0.2001	1244	64.62
298.15 K, x2 = 0.2997	1248	60.23
298.15 K, x2 = 0.3999	1252.4	56.1
298.15 K, x2 = 0.4996	1256.9	52.32
298.15 K, x2 = 0.5991	1261.3	48.83
298.15 K, x2 = 0.6997	1266	45.57
298.15 K, x2 = 0.7999	1270.6	42.59
298.15 K, x2 = 0.8998	1275.5	39.79
303.15 K, x2 = 0	1232	58.59
303.15 K, x2 = 0.1003	1236.2	55.12
303.15 K, x2 = 0.2001	1240.4	51.66
303.15 K, x2 = 0.2997	1244.3	48.42
303.15 K, x2 = 0.3999	1248.7	45.34
303.15 K, x2 = 0.4996	1253.2	42.52
303.15 K, x2 = 0.5991	1257.5	39.91
303.15 K, x2 = 0.6997	1262.1	37.45
303.15 K, x2 = 0.7999	1266.9	35.17
303.15 K, x2 = 0.8998	1271.7	33.06
308.15 K, x2 = 0	1228.3	47.16
308.15 K, x2 = 0.1003	1232.5	44.58
308.15 K, x2 = 0.2001	1236.6	41.98
308.15 K, x2 = 0.2997	1240.7	39.54
308.15 K, x2 = 0.3999	1245	37.21
308.15 K, x2 = 0.4996	1249.3	35.08
308.15 K, x2 = 0.5991	1253.8	33.08
308.15 K, x2 = 0.6997	1258.4	31.19
308.15 K, x2 = 0.7999	1263.1	29.45
308.15 K, x2 = 0.8998	1267.7	27.82
313.15 K, x2 = 0	1224.7	38.56
313.15 K, x2 = 0.1003	1228.8	36.6
313.15 K, x2 = 0.2001	1233	34.63
313.15 K, x2 = 0.2997	1237	32.76
313.15 K, x2 = 0.3999	1241.3	30.97
313.15 K, x2 = 0.4996	1245.6	29.33
313.15 K, x2 = 0.5991	1250.1	27.78
313.15 K, x2 = 0.6997	1254.6	26.3
313.15 K, x2 = 0.7999	1259.3	24.95
313.15 K, x2 = 0.8998	1264	23.67
318.15 K, x2 = 0	1221	31.98
318.15 K, x2 = 0.1003	1225.1	30.46
318.15 K, x2 = 0.2001	1229.3	28.93
318.15 K, x2 = 0.2997	1233.3	27.48
318.15 K, x2 = 0.3999	1237.6	26.08
318.15 K, x2 = 0.4996	1241.9	24.8
318.15 K, x2 = 0.5991	1246.3	23.6
318.15 K, x2 = 0.6997	1250.9	22.43
318.15 K, x2 = 0.7999	1255.6	21.36
318.15 K, x2 = 0.8998	1260.3	20.35
323.15 K, x2 = 0	1217.4	26.83
323.15 K, x2 = 0.1003	1221.5	25.66
323.15 K, x2 = 0.2001	1225.6	24.47
323.15 K, x2 = 0.2997	1229.7	23.33
323.15 K, x2 = 0.3999	1233.9	22.21
323.15 K, x2 = 0.4996	1238.2	21.2
323.15 K, x2 = 0.5991	1242.6	20.24
323.15 K, x2 = 0.6997	1247.1	19.31
323.15 K, x2 = 0.7999	1251.8	18.46
323.15 K, x2 = 0.8998	1256.5	17.65
328.15 K, x2 = 0	1213.8	22.77
328.15 K, x2 = 0.1003	1217.9	21.85
328.15 K, x2 = 0.2001	1222	20.91
328.15 K, x2 = 0.2997	1226	20.01
328.15 K, x2 = 0.3999	1230.3	19.1
328.15 K, x2 = 0.4996	1234.6	18.3
328.15 K, x2 = 0.5991	1238.9	17.52
328.15 K, x2 = 0.6997	1243.4	16.78
328.15 K, x2 = 0.7999	1248.1	16.07
328.15 K, x2 = 0.8998	1252.8	15.43
333.15 K, x2 = 0	1210.2	19.54
333.15 K, x2 = 0.1003	1214.3	18.8
333.15 K, x2 = 0.2001	1218.4	18.05
333.15 K, x2 = 0.2997	1222.4	17.32
333.15 K, x2 = 0.3999	1226.6	16.57
333.15 K, x2 = 0.4996	1230.9	15.92
333.15 K, x2 = 0.5991	1235.2	15.29
333.15 K, x2 = 0.6997	1239.8	14.67
333.15 K, x2 = 0.7999	1244.4	14.1
333.15 K, x2 = 0.8998	1249.1	13.58
338.15 K, x2 = 0	1206.6	16.92
338.15 K, x2 = 0.1003	1210.7	16.33
338.15 K, x2 = 0.2001	1214.8	15.72
338.15 K, x2 = 0.2997	1218.8	15.12
338.15 K, x2 = 0.3999	1222.9	14.49
338.15 K, x2 = 0.4996	1227.3	13.96
338.15 K, x2 = 0.5991	1231.6	13.43
338.15 K, x2 = 0.6997	1236.1	12.94
338.15 K, x2 = 0.7999	1240.7	12.46
338.15 K, x2 = 0.8998	1245.4	12.04
343.15 K, x2 = 0	1203	14.77
343.15 K, x2 = 0.1003	1207.1	14.3
343.15 K, x2 = 0.2001	1211.1	13.8
343.15 K, x2 = 0.2997	1215.2	13.3
343.15 K, x2 = 0.3999	1219.4	12.77
343.15 K, x2 = 0.4996	1223.7	12.32
343.15 K, x2 = 0.5991	1228	11.89
343.15 K, x2 = 0.6997	1232.5	11.47
343.15 K, x2 = 0.7999	1237.1	11.07
343.15 K, x2 = 0.8998	1241.7	10.74
